IC50 data for 35 compounds are collected here from patent publication US20260167632A1, “NICOTINAMIDE DERIVATIVES FOR USE IN TREATING DISORDERS ASSOCIATED WITH KCNK13 ACTIVITY” (Cerevance, Inc., priority 2022, published 2026).

A value given as a limit tells only on which side of the number the result lay.

The test addresses T1, human KCNK13 (Homo sapiens, UniProt Q9HB14).
T1 construct: expressed in transfected cells
T1 sequence (Q9HB14 1-408): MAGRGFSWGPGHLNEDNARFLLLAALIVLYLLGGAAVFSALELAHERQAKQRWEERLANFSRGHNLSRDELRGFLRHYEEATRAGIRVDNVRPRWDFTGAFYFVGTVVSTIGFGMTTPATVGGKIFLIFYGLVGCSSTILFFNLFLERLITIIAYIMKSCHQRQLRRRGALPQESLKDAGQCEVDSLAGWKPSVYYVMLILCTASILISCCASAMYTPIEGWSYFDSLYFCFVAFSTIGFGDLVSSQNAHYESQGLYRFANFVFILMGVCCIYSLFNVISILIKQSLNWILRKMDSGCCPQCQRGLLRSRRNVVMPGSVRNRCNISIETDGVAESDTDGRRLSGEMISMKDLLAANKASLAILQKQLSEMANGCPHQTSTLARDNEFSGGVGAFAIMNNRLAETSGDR
Kind of test: KCNK13 antagonist activity, thallium flux FLIPR assay in HEK 293 cells stably expressing human KCNK13. The note with it: HEK 293 cells stably expressing human KCNK13, Tl+ sensitive dye, compound 15 min before thallium sulfate, ten point curves; read-out: hKCNK13 IC50. It counts as cell-based. The method, then: 4. Biological Efficacy of Compounds of the Invention
KCNK13 antagonist activity was determined by measuring changes in intracellular Thallium (Tl^+) concentrations using a Tl^+ sensitive fluorescent dye. The changes in fluorescent signal were monitored by Fluorescent Imaging Plate Reader (FLIPR™) technology available from Molecular Devices, LLC, US. KCNK13 mediated increases in intracellular Tl^+ concentration were readily detected by addition of a thallium sulfate Stimulus. 24 hours prior to the assay, human embryonic kidney 293 cells (HEK 293 cells) stably expressing human KCNK13 were seeded in cell culture medium in PDL coated black, clear-bottom 384-well plates (commercially available from Corning Inc., 356663) and grown overnight at 37° C., […]. On the day of the assay, cell culture media was removed and cells were loaded with potassium dye (commercially sold by Molecular Devices, LLC, US, R8222) for 1 hour at room temperature in the dark. Test compounds (at 10 point half log concentration response curves from 100 µM) were added to cells for 15 minutes prior to the addition of thallium sulfate to all wells. The IC50 values were determined from ten point concentration response curves. Curves were generated using the average of two wells for each data point.
As for `CCOc1ncc(Cl)cc1C(=O)N(C)C1CCc2ccccc21` (single isomer, unassigned) [Example 13, 5-chloro-N-(2,3-dihydro-1H-inden-1-yl)-2-ethoxy-N-methylnicotinamide], the IC50 (usually the point on the concentration scale where inhibition reaches its midpoint) is no more than 500 nM. Under `COc1ncc(Cl)cc1C(=O)N(C)C1COc2ccccc21` (single isomer, unassigned) [Example 25, 5-chloro-N-(2,3-dihydrobenzofuran-3-yl)-2-methoxy-N-methylnicotinamide] stands no more than 500 nM; under `COc1ncc(F)cc1C(=O)N(C)C1(c2cccc(F)c2)CC1` [Example 34, 5-fluoro-N-(1-(3-fluorophenyl)cyclopropyl)-2-methoxy-N-methylnicotinamide], no more than 500 nM. Under `O=S(=O)(c1cc(F)cnc1OC(F)F)N1CCc2ccc(F)cc2C1` [Example 111, 2-((2-(difluoromethoxy)-5-fluoropyridin-3-yl)sulfonyl)-7-fluoro-1,2,3,4-tetrahydroisoquinoline] stands no more than 200 nM; under `CN(Cc1cccc(C#N)c1)C(=O)c1cc(Cl)cnc1OC(F)F` [Example 90, 5-chloro-N-(3-cyanobenzyl)-2-(difluoromethoxy)-N-methylnicotinamide], no more than 500 nM; under `COc1ncc(F)cc1C(=O)N(C)Cc1ccccc1C#N` [Example 36, N-(2-cyanobenzyl)-5-fluoro-2-methoxy-N-methylnicotinamide], no more than 500 nM.

Take `COc1ncc(F)cc1C(=O)N(C)C(C)c1ccccc1F` (single isomer, unassigned) [Example 6, 5-fluoro-N-(1-(2-fluorophenyl)ethyl)-2-methoxy-N-methylnicotinamide]: the IC50 was no more than 500 nM. With `CN(Cc1cccc(C#N)c1)S(=O)(=O)c1cc(F)cnc1OC(F)F` [Example 106, N-(3-cyanobenzyl)-2-(difluoromethoxy)-5-fluoro-N-methylpyridine-3-sulfonamide] the figure was no more than 500 nM. Under `COc1nccc(C)c1C(=O)N(C)Cc1ccc(F)cc1F` [Example 73, N-(2,4-difluorobenzyl)-2-methoxy-N,4-dimethylnicotinamide] stands no more than 500 nM. For the compound `COc1ncc(Cl)cc1C(=O)N(C)Cc1ccc(F)cc1C(F)(F)F` [Example 57, 5-chloro-N-(4-fluoro-2-(trifluoromethyl)benzyl)-2-methoxy-N-methylnicotinamide], the IC50 is no more than 1000 nM. With `COc1ncc(F)cc1C(=O)N(C)C(C)c1cc(F)ccc1C#N` (single isomer, unassigned) [Example 63, N-(1-(2-cyano-5-fluorophenyl)ethyl)-5-fluoro-2-methoxy-N-methylnicotinamide] the figure was no more than 1000 nM; with `CC(c1ccccc1F)N(C)C(=O)c1cc(F)cnc1OC(F)F` (single isomer, unassigned) [Example 71, 2-(difluoromethoxy)-5-fluoro-N-(1-(2-fluorophenyl)ethyl)-N-methylnicotinamide], no more than 100 nM. Under `COc1ncc(Cl)cc1C(=O)N(C)Cc1ccccc1` [Example 1, N-benzyl-5-chloro-2-methoxy-N-methylnicotinamide] stands no more than 100 nM; under `COc1ncc(F)cc1C(=O)N(C)C(C)c1ccccc1F` (single isomer, unassigned) [Example 5, 5-fluoro-N-(1-(2-fluorophenyl)ethyl)-2-methoxy-N-methylnicotinamide], no more than 500 nM; under `COc1ncc(Cl)cc1C(=O)N(C)C1CCc2ccccc21` (single isomer, unassigned) [Example 22, 5-chloro-N-(2,3-dihydro-1H-inden-1-yl)-2-methoxy-N-methylnicotinamide], no more than 500 nM. With `COc1ncc(Cl)cc1C(=O)N(C)Cc1c(F)cccc1F` [Example 117, 5-chloro-N-(2,6-difluorobenzyl)-2-methoxy-N-methylnicotinamide], the IC50 was no more than 200 nM. Under `COc1ncc(Cl)cc1S(=O)(=O)N1CCc2ccccc2C1` [Example 52, 2-((5-chloro-2-methoxypyridin-3-yl)sulfonyl)-1,2,3,4-tetrahydroisoquinoline] stands no more than 200 nM; under `COc1ncc(Cl)cc1C(=O)N(C)C1COc2cc(F)ccc21` (single isomer, unassigned) [Example 45, 5-chloro-N-(6-fluoro-2,3-dihydrobenzofuran-3-yl)-2-methoxy-N-methylnicotinamide], no more than 5000 nM. Under `COc1ncc(Cl)cc1C(=O)N(C)C(C)c1cc(F)ccc1C#N` (single isomer, unassigned) [Example 59, 5-chloro-N-(1-(2-cyano-5-fluorophenyl)ethyl)-2-methoxy-N-methylnicotinamide] stands no more than 500 nM. Under `COc1ncc(Cl)cc1C(=O)N(C)Cc1cc(F)cc(Cl)c1` [Example 44, 5-chloro-N-(3-chloro-5-fluorobenzyl)-2-methoxy-N-methylnicotinamide] stands no more than 200 nM; under `CN(Cc1cccc(F)c1)C(=O)c1cc(C(F)(F)F)cnc1OC(F)F` [Example 96, 2-(difluoromethoxy)-N-(3-fluorobenzyl)-N-methyl-5-(trifluoromethyl)nicotinamide], no more than 500 nM. Take `CN(Cc1cccc(F)c1)C(=O)c1cc(C2CCC2)cnc1OC(F)F` [Example 97, 5-cyclobutyl-2-(difluoromethoxy)-N-(3-fluorobenzyl)-N-methylnicotinamide]: the IC50 was no more than 1000 nM. With `CN(Cc1cc(F)cc(Cl)c1)C(=O)c1cc(Cl)cnc1OC(F)F` [Example 79, 5-chloro-N-(3-chloro-5-fluorobenzyl)-2-(difluoromethoxy)-N-methylnicotinamide] the figure was no more than 200 nM.

With `COc1ncc(F)cc1C(=O)N(C)C(C)c1cc(F)ccc1C#N` (single isomer, unassigned) [Example 62, N-(1-(2-cyano-5-fluorophenyl)ethyl)-5-fluoro-2-methoxy-N-methylnicotinamide], the IC50 was no more than 1000 nM. Under `CN(C(=O)c1cc(Cl)cnc1OC(F)F)C1COc2cc(F)ccc21` (centres unmarked) [Example 77, 5-chloro-2-(difluoromethoxy)-N-(6-fluoro-2,3-dihydrobenzofuran-3-yl)-N-methylnicotinamide] stands no more than 500 nM; under `N#Cc1cc(F)ccc1S(=O)(=O)N1CCOc2ccc(F)cc2C1` [Example 120, 5-fluoro-2-((7-fluoro-2,3-dihydrobenzo[f][1,4]oxazepin-4(5H)-yl)sulfonyl)benzonitrile], no more than 200 nM. With `COc1ncc(Cl)cc1S(=O)(=O)N1CCOc2ccc(F)cc2C1` [Example 54, 4-((5-chloro-2-methoxypyridin-3-yl)sulfonyl)-7-fluoro-2,3,4,5-tetrahydrobenzo[f][1,4]oxazepine] the figure was no more than 500 nM; with `CC(c1cccc(F)c1)N(C)C(=O)c1cc(Cl)cnc1OC(F)F` (single isomer, unassigned) [Example 86, 5-chloro-2-(difluoromethoxy)-N-(1-(3-fluorophenyl)ethyl)-N-methylnicotinamide], no more than 100 nM; with `CN(Cc1cccc(C(F)(F)F)c1)C(=O)c1cc(Cl)cnc1OC(F)F` [Example 82, 5-chloro-2-(difluoromethoxy)-N-methyl-N-(3-(trifluoromethyl)benzyl)nicotinamide], no more than 500 nM.

Turning to `O=S(=O)(c1cc(Cl)cnc1OC(F)F)N1CCOc2ccc(F)cc2C1` [Example 115, 4-((5-chloro-2-(difluoromethoxy)pyridin-3-yl)sulfonyl)-7-fluoro-2,3,4,5-tetrahydrobenzo[f][1,4]oxazepine], the IC50 is no more than 500 nM. Under `COc1ncc(F)cc1C(=O)N(C)C(C)c1ccc(F)cc1C#N` (single isomer, unassigned) [Example 64, N-(1-(2-cyano-4-fluorophenyl)ethyl)-5-fluoro-2-methoxy-N-methylnicotinamide] stands no more than 5000 nM; under `COc1ncc(Cl)cc1C(=O)N(C)C1COc2cc(F)ccc21` (single isomer, unassigned) [Example 46, 5-chloro-N-(6-fluoro-2,3-dihydrobenzofuran-3-yl)-2-methoxy-N-methylnicotinamide], no more than 1000 nM. With `CC(c1ccccc1F)N(C)C(=O)c1cc(F)cnc1OC(F)F` (single isomer, unassigned) [Example 70, 2-(difluoromethoxy)-5-fluoro-N-(1-(2-fluorophenyl)ethyl)-N-methylnicotinamide] the figure was no more than 200 nM; with `COc1ncc(C)cc1C(=O)N(C)Cc1ccc(F)cc1F` [Example 72, N-(2,4-difluorobenzyl)-2-methoxy-N,5-dimethylnicotinamide], no more than 200 nM. In the case of `O=S(=O)(c1cc(F)cnc1OC(F)F)N1CCOc2ccc(F)cc2C1` [Example 114, 4-((2-(difluoromethoxy)-5-fluoropyridin-3-yl)sulfonyl)-7-fluoro-2,3,4,5-tetrahydrobenzo[f][1,4]oxazepine], the IC50 is no more than 200 nM.
